Results: ChEMBL document CHEMBL1153480, “Study on the potential anti-cancer activity of phosphonium and ammonium-based ionic liquids” (2009)

Legend:
Type in all cases: functional
cells [1] = details: Homo sapiens, Hs-578T
Description: Growth inhibition of human Hs 578T cells assessed as cell growth at 10 uM by SRB assay

NCI-H23 = test: cells; details: Homo sapiens
Description: Growth inhibition of human NCI-H23 cells assessed as drug level required for 50% reduction in net protein increase by SRB assay relative to control

MOLT-4 [2] = test: Cytotoxicity against human MOLT4 cells by SRB assay; details: read-out: LC50 (the source's name)
SF-295 [3] = test: cells; details: Homo sapiens
Description: Growth inhibition of human SF295 cells assessed as drug level required for 50% reduction in net protein increase by SRB assay relative to control

IGROV-1 = test: cells; details: Homo sapiens
Description: Growth inhibition of human IGROV1 cells assessed as drug level required for 50% reduction in net protein increase by SRB assay relative to control

NCI/ADR-RES = test: cells; details: Homo sapiens
Description: Growth inhibition of human NCI/ADR-RES cells assessed as cell growth at 10 uM by SRB assay

TK-10 = test: cells; details: Homo sapiens
Description: Growth inhibition of human TK10 cells assessed as cell growth at 10 uM by SRB assay

MDA-MB-435 [4] = test: cells; details: Homo sapiens
Description: Growth inhibition of human MDA-MB-435 cells assessed as cell growth at 10 uM by SRB assay

NCI-H522 [5] = test: Cytotoxicity against human NCI-H522 cells by SRB assay; details: read-out: LC50 (the source's name)
HOP-62 = test: Cytotoxicity against human HOP62 cells by SRB assay; details: read-out: LC50 (the source's name)
NCI-H322M = test: cells; details: Homo sapiens
Description: Growth inhibition of human NCI-H322M cells assessed as drug level required for 50% reduction in net protein increase by SRB assay relative to control

OVCAR-8 [6] = test: cells; details: Homo sapiens
Description: Growth inhibition of human OVCAR8 cells assessed as drug level required for 50% reduction in net protein increase by SRB assay relative to control

SF-268 = test: cells; details: Homo sapiens
Description: Growth inhibition of human SF268 cells assessed as cell growth at 10 uM by SRB assay

Malme-3M [7] = test: cells; details: Homo sapiens
Description: Growth inhibition of human MALME-3M cells assessed as cell growth at 10 uM by SRB assay

OVCAR-5 = test: cells; details: Homo sapiens
Description: Growth inhibition of human OVCAR5 cells assessed as drug level required for 50% reduction in net protein increase by SRB assay relative to control

MDA-MB-435 [8] = test: Cytotoxicity against human MDA-MB-435 cells by SRB assay; details: read-out: LC50 (the source's name)
SNB-75 = test: cells; details: Homo sapiens
Description: Growth inhibition of human SNB75 cells assessed as cell growth at 10 uM by SRB assay

SK-MEL-2 = test: cells; details: Homo sapiens
Description: Growth inhibition of human SK-MEL-2 cells assessed as drug level required for 50% reduction in net protein increase by SRB assay relative to control

NCI-H522 [9] = test: cells; details: Homo sapiens
Description: Growth inhibition of human NCI-H522 cells assessed as cell growth at 10 uM by SRB assay

cells [10] = details: Homo sapiens, CAKI
Description: Growth inhibition of human CAKI cells assessed as drug level required for 50% reduction in net protein increase by SRB assay relative to control

MDA-MB-468 = test: cells; details: Homo sapiens
Description: Growth inhibition of human MDA-MB-468 cells assessed as drug level required for 50% reduction in net protein increase by SRB assay relative to control

SF-295 [11] = test: cells; details: Homo sapiens; remark: listed apart in the source
Description: Growth inhibition of human SF295 cells assessed as cell growth at 10 uM by SRB assay

OVCAR-3 [12] = test: cells; details: Homo sapiens
Description: Growth inhibition of human OVCAR-3 cells assessed as cell growth at 10 uM by SRB assay

NCI-H226 [13] = test: cells; details: Homo sapiens
Description: Growth inhibition of human NCI-H226 cells assessed as drug level required for 50% reduction in net protein increase by SRB assay relative to control

SK-MEL-28 [14] = test: cells; details: Homo sapiens
Description: Growth inhibition of human SK-MEL-28 cells assessed as cell growth at 10 uM by SRB assay

OVCAR-8 [15] = test: cells; details: Homo sapiens; remark: listed apart in the source
Description: Growth inhibition of human OVCAR8 cells assessed as cell growth at 10 uM by SRB assay

RXF 393 [16] = test: cells; details: Homo sapiens
Description: Growth inhibition of human RFX393 cells assessed as cell growth at 10 uM by SRB assay

A498 = test: cells; details: Homo sapiens
Description: Growth inhibition of human A498 cells assessed as drug level required for 50% reduction in net protein increase by SRB assay relative to control

HCT-116 [17] = test: Cytotoxicity against human HCT116 cells by SRB assay; details: read-out: LC50 (the source's name)
SK-OV-3 = test: cells; details: Homo sapiens
Description: Growth inhibition of human SKOV3 cells assessed as drug level required for 50% reduction in net protein increase by SRB assay relative to control

PC-3 [18] = test: cells; details: Homo sapiens
Description: Growth inhibition of human PC3 cells assessed as drug level required for 50% reduction in net protein increase by SRB assay relative to control

MCF7 [19] = test: cells; details: Homo sapiens
Description: Growth inhibition of human MCF7 cells assessed as drug level required for 50% reduction in net protein increase by SRB assay relative to control

BT-549 = test: cells; details: Homo sapiens
Description: Growth inhibition of human BT549 cells assessed as drug level required for 50% reduction in net protein increase by SRB assay relative to control

MDA-MB-231 = test: cells; details: Homo sapiens
Description: Growth inhibition of human MDA-MB-231 cells assessed as drug level required for 50% reduction in net protein increase by SRB assay relative to control

COLO 205 [20] = test: Cytotoxicity against human COLO205 cells by SRB assay; details: read-out: LC50 (the source's name)
OVCAR-3 [21] = test: Cytotoxicity against human OVCAR-3 cells by SRB assay; details: read-out: LC50 (the source's name)
KM12 [22] = test: Cytotoxicity against human KM12 cells by SRB assay; details: read-out: LC50 (the source's name)
HT-29 [23] = test: Cytotoxicity against human HT-29 cells by SRB assay; details: read-out: LC50 (the source's name)
SF-295 [24] = test: Cytotoxicity against human SF295 cells by SRB assay; details: read-out: LC50 (the source's name)
PC-3 [25] = test: Cytotoxicity against human PC3 cells by SRB assay; details: read-out: LC50 (the source's name)
K562 = test: cells; details: Homo sapiens
Description: Growth inhibition of human K562 cells assessed as cell growth at 10 uM by SRB assay

KM12 [26] = test: cells; details: Homo sapiens
Description: Growth inhibition of human KM12 cells assessed as drug level required for 50% reduction in net protein increase by SRB assay relative to control

786-0 = test: cells; details: Homo sapiens
Description: Growth inhibition of human 786-0 cells assessed as drug level required for 50% reduction in net protein increase by SRB assay relative to control

NCI-H522 [27] = test: cells; details: Homo sapiens; remark: listed apart in the source
Description: Growth inhibition of human NCI-H522 cells assessed as drug level required for 50% reduction in net protein increase by SRB assay relative to control

MDA-MB-435 [28] = test: cells; details: Homo sapiens; remark: listed apart in the source
Description: Growth inhibition of human MDA-MB-435 cells assessed as drug level required for 50% reduction in net protein increase by SRB assay relative to control

HT-29 [29] = test: cells; details: Homo sapiens
Description: Growth inhibition of human HT-29 cells assessed as drug level required for 50% reduction in net protein increase by SRB assay relative to control

UACC-257 = test: cells; details: Homo sapiens
Description: Growth inhibition of human UACC257 cells assessed as drug level required for 50% reduction in net protein increase by SRB assay relative to control

OVCAR-8 [30] = test: Cytotoxicity against human OVCAR8 cells by SRB assay; details: read-out: LC50 (the source's name)
HCT-116 [31] = test: cells; details: Homo sapiens
Description: Growth inhibition of human HCT116 cells assessed as drug level required for 50% reduction in net protein increase by SRB assay relative to control

RXF 393 [32] = test: cells; details: Homo sapiens; remark: listed apart in the source
Description: Growth inhibition of human RFX393 cells assessed as drug level required for 50% reduction in net protein increase by SRB assay relative to control

SNB-19 [33] = test: cells; details: Homo sapiens
Description: Growth inhibition of human SNB19 cells assessed as drug level required for 50% reduction in net protein increase by SRB assay relative to control

T47D = test: Cytotoxicity against human T47D cells by SRB assay; details: read-out: LC50 (the source's name)
MOLT-4 [34] = test: cells; details: Homo sapiens
Description: Growth inhibition of human MOLT4 cells assessed as drug level required for 50% reduction in net protein increase by SRB assay relative to control

[35] = Cytotoxicity against human CAKI cells by SRB assay; details: read-out: LC50 (the source's name)
cells [36] = details: Homo sapiens, CAKI; remark: listed apart in the source
Description: Growth inhibition of human CAKI cells assessed as cell growth at 10 uM by SRB assay

COLO 205 [37] = test: cells; details: Homo sapiens
Description: Growth inhibition of human COLO205 cells assessed as cell growth at 10 uM by SRB assay

SW-620 = test: Cytotoxicity against human SW620 cells by SRB assay; details: read-out: LC50 (the source's name)
ACHN = test: cells; details: Homo sapiens
Description: Growth inhibition of human ACHN cells assessed as drug level required for 50% reduction in net protein increase by SRB assay relative to control

NCI-H226 [38] = test: cells; details: Homo sapiens; remark: listed apart in the source
Description: Growth inhibition of human NCI-H226 cells assessed as cell growth at 10 uM by SRB assay

Malme-3M [39] = test: cells; details: Homo sapiens; remark: listed apart in the source
Description: Growth inhibition of human MALME-3M cells assessed as drug level required for 50% reduction in net protein increase by SRB assay relative to control

HCT-15 = test: cells; details: Homo sapiens
Description: Growth inhibition of human HCT15 cells assessed as cell growth at 10 uM by SRB assay

SN12C = test: cells; details: Homo sapiens
Description: Growth inhibition of human SN12C cells assessed as cell growth at 10 uM by SRB assay

U-251 = test: cells; details: Homo sapiens
Description: Growth inhibition of human U251 cells assessed as cell growth at 10 uM by SRB assay

SK-MEL-28 [40] = test: Cytotoxicity against human SK-MEL-28 cells by SRB assay; details: read-out: LC50 (the source's name)
MOLT-4 [41] = test: cells; details: Homo sapiens; remark: listed apart in the source
Description: Growth inhibition of human MOLT4 cells assessed as cell growth at 10 uM by SRB assay

MCF7 [42] = test: Cytotoxicity against human MCF7 cells by SRB assay; details: read-out: LC50 (the source's name)
SNB-19 [43] = test: Cytotoxicity against human SNB19 cells by SRB assay; details: read-out: LC50 (the source's name)
NCI-H460 = test: cells; details: Homo sapiens
Description: Growth inhibition of human NCI-H460 cells assessed as drug level required for 50% reduction in net protein increase by SRB assay relative to control

M14 [44] = test: cells; details: Homo sapiens
Description: Growth inhibition of human M14 cells assessed as cell growth at 10 uM by SRB assay

UACC-62 = test: cells; details: Homo sapiens
Description: Growth inhibition of human UACC62 cells assessed as drug level required for 50% reduction in net protein increase by SRB assay relative to control

M14 [45] = test: Cytotoxicity against human M14 cells by SRB assay; details: read-out: LC50 (the source's name)
SR = test: Cytotoxicity against human SR cells by SRB assay; details: read-out: LC50 (the source's name)

For `CCCCCCCCCCCCCCCCCCPCCCCCCCCCCCCCC.O=S(=O)(NS(=O)(=O)C(F)(F)F)C(F)(F)F` (configuration not stated), the growth at 10 µM (cells [1]) was -35.8%, the GI50 (NCI-H23) was 192 nM and the CC50 (MOLT-4 [2]) was greater than 100 µM. For the same compound, the GI50 (SF-295 [3]) was 205 nM, the GI50 (IGROV-1) was 71 nM and the growth at 10 µM (NCI/ADR-RES) was -10.5%. For the same compound, the growth at 10 µM (TK-10) was -43.3%, the growth at 10 µM (MDA-MB-435 [4]) was -81% and the CC50 (NCI-H522 [5]) was greater than 100 µM. The CC50 (HOP-62) was greater than 100 µM, the GI50 (NCI-H322M) was 321 nM and the GI50 (OVCAR-8 [6]) was 86 nM. The growth at 10 µM (SF-268) was -4.6%, the growth at 10 µM (Malme-3M [7]) was -36.5% and the GI50 (OVCAR-5) was 318 nM. It also gave a CC50 (MDA-MB-435 [8]) of 19.8 µM, a growth at 10 µM (SNB-75) of -31.4% and a GI50 (SK-MEL-2) of 27 nM. It also gave a growth at 10 µM (NCI-H522 [9]) of -71.4%, a GI50 (cells [10]) of 236 nM and a GI50 (MDA-MB-468) of 36 nM. For the same compound, the growth at 10 µM (SF-295 [11]) was -68.4%, the growth at 10 µM (OVCAR-3 [12]) was -100% and the GI50 (NCI-H226 [13]) was 105 nM. For the same compound, the growth at 10 µM (SK-MEL-28 [14]) was -97.8%, the growth at 10 µM (OVCAR-8 [15]) was -79.9% and the growth at 10 µM (RXF 393 [16]) was -97.7%. For the same compound, the GI50 (A498) was 310 nM, the CC50 (HCT-116 [17]) was greater than 100 µM and the GI50 (SK-OV-3) was 2610 nM. It also gave a GI50 (PC-3 [18]) of 45 nM, a GI50 (MCF7 [19]) of 144 nM and a GI50 (BT-549) of 66 nM. It also gave a GI50 (MDA-MB-231) of 56 nM, a CC50 (COLO 205 [20]) greater than 100 µM and a CC50 (OVCAR-3 [21]) of 6.76 µM. It also gave a CC50 (KM12 [22]) greater than 100 µM, a CC50 (HT-29 [23]) greater than 100 µM and a CC50 (SF-295 [24]) greater than 100 µM. It also gave a CC50 (PC-3 [25]) of 5.9 µM, a growth at 10 µM (K562) of 39% and a GI50 (KM12 [26]) of 49 nM. The GI50 (786-0) was 253 nM, the GI50 (NCI-H522 [27]) was 105 nM and the GI50 (MDA-MB-435 [28]) was 45 nM. For the same compound, the GI50 (HT-29 [29]) was 53 nM, the GI50 (UACC-257) was 103 nM and the CC50 (OVCAR-8 [30]) was greater than 100 µM. The GI50 (HCT-116 [31]) was 61 nM, the GI50 (RXF 393 [32]) was 141 nM and the GI50 (SNB-19 [33]) was 69 nM. The CC50 (T47D) was greater than 100 µM, the GI50 (MOLT-4 [34]) was 69 nM and the CC50 [35] was greater than 100 µM. The growth at 10 µM (cells [36]) was 4.01%, the growth at 10 µM (COLO 205 [37]) was -65.4% and the CC50 (SW-620) was greater than 100 µM. The GI50 (ACHN) was 260 nM, the growth at 10 µM (NCI-H226 [38]) was -1.45% and the GI50 (Malme-3M [39]) was 29 nM. The growth at 10 µM (HCT-15) was 7.54%, the growth at 10 µM (SN12C) was -79.1% and the growth at 10 µM (U-251) was -68.4%. It also gave a CC50 (SK-MEL-28 [40]) of 6.59 µM, a growth at 10 µM (MOLT-4 [41]) of 51.6% and a CC50 (MCF7 [42]) greater than 100 µM. For the same compound, the CC50 (SNB-19 [43]) was greater than 100 µM, the GI50 (NCI-H460) was 315 nM and the growth at 10 µM (M14 [44]) was -83.9%. The GI50 (UACC-62) was 45 nM, the CC50 (M14 [45]) was greater than 100 µM and the CC50 (SR) was 8.09 µM.
